From patent US20250145715A1, “B7-H3 TARGETING FUSION PROTEINS AND METHODS OF USE THEREOF” (GT Biopharma, Inc., priority 2021, published 2025)
“Also recorded” adds a separate entry of the source.

Legend:
[1] = system: HNSCC cells (Cal27, Cal33); experiment: IncuCyte 2D and 3D spheroid killing of HNSCC; type: cell-based, human; settings: 2D and 3D IncuCyte; E:T 5:1, 3 nM; irrespective of FANCA gene; vs B7-H3 single domain or IL-15 alone
Procedure: FIGS. 28A-28F illustrate real-time imaging assays. FIG. 28A is a graph showing Nuclight red-labeled Cal27 survival after incubation with NK cells at an E:T of 5:1 in different conditions: no treatment or 3 nM IL-15, B7-H3 SD and B7-H3 TriKE for 48 hours in an IncuCyte Zoom imager. […] FIG. 28C is a graph illustrating the size of the spheroid in FIG. 28B. FIG. 28D is a graph showing Nuclight red-labeled Cal33 survival after incubation with NK cells at an E:T of 5:1 in different conditions: no treatment or 3 nM IL-15, B7-H3 SD and B7-H3 TriKE for 48 hours in an IncuCyte Zoom imager. […] FIG. 28F is a graph illustrating the size of the spheroid in FIG. 28E.
NK cell responses against HNSCC lines in the presence of the B7-H3 TriKE were assessed through either flow cytometry based functional assays, to evaluate NK cell degranulation and cytokine secretion, or IncuCyte imaging assays, to directly assess target killing. […]
Enriched NK cells (N=4) were incubated with Nuclight red-labeled Cal27 at an E:T of 5:1 in different conditions: no treatment or 3 nM IL-15, B7-H3 SD and B7-H3 TriKE for 48 hours in an IncuCyte Zoom imager. Quantifications of percent live cells were done by normalizing hourly counts of red cells to targets alone at t=0. […] Quantifications of percent average red object area (live cells) were done by normalizing hourly counts of average red object area to targets alone at t=0. […]

[2] = system: MA-148 ovarian cancer cells; experiment: NK cell CD107a / IFNγ flow cytometry against MA-148; type: cell-based, human; settings: vs controls
Procedure: FIG. 29A is a graph illustrating pooled proportion of NK cells from healthy donors expressing CD107a+ (degranulation) against OVCAR8 and MA148 targets. FIG. 29B is a graph illustrating pooled proportion of NK cells from healthy donors expressing IFNγ cytokine production against OVCAR8 and MA148 targets.
Healthy donor or ovarian cancer PBMC cells were incubated with ovarian tumor targets at 2:1 E:T ratio for 4 hrs with 30 nM TriKE or control condition. FIG. 30A is a graph illustrating pooled proportion of NK cells from healthy donors expressing CD107a+ (degranulation) against OVCAR8 targets (N=8). […] FIG. 30I is a graph illustrating that tumor killing was evaluated using IncuCyte imaging assay. […] The percentage of Live (Nuclight Red+Caspase 3/7−) tumor cells was quantified over a 48-h period and normalized to tumor alone. Readings were obtained every 15 min (representative of four separate experiments). * p<0.05, ** p<0.01, *** p<0.001, and **** p<0.0001.
ADCC was measured in a flow cytometry assay by evaluating degranulation via CD107a (lysosomal-associated membrane protein LAMP-1) and intracellular IFNγ production. […] Samples were washed and evaluated in an LSRII flow cytometer (BD Biosciences, San Jose, CA, USA).
The ability of cam1615B7-H3 TriKE to mediate NK cell activity against ovarian cancer cells was evaluated. […]

Substance | HNSCC target cell killing by NK cells [1] | NK cell activity against MA-148 ([2]; normal donor NK cells) | NK cell degranulation against MA-148 ([2]; ovarian-cancer-derived ascites samples)
B7-H3 TriKE: camelid nanobodies targeting CD16 and B7-H3 joined by IL-15 and two linkers; sequence table equates the name with cam1615B7-H3 | more HNSCC target cell killing; also recorded: induced NK cell killing against HNSCC | – | –
cam1615B7-H3: second-generation TriKE: humanized camelid anti-CD16 VHH, human wild-type IL-15, anti-B7-H3 mAb 376.96 scFv; SEQ ID NO:1 | – | robust activity | significantly enhanced NK cell degranulation
